Test results taken from ChEMBL document CHEMBL1150977, “A quantitative analysis of kinase inhibitor selectivity” (Nat Biotechnol, 2008).

Columns and labels:
[1] = biological target: Mitogen-activated protein kinase 9 (Homo sapiens, UniProt P45984)
[2] = biological target: Proto-oncogene tyrosine-protein kinase receptor Ret (Homo sapiens, UniProt P07949)
[3] = biological target: T1, Tyrosine-protein kinase receptor UFO (Homo sapiens, UniProt P30530)
T1 sequence (P30530 whole entry): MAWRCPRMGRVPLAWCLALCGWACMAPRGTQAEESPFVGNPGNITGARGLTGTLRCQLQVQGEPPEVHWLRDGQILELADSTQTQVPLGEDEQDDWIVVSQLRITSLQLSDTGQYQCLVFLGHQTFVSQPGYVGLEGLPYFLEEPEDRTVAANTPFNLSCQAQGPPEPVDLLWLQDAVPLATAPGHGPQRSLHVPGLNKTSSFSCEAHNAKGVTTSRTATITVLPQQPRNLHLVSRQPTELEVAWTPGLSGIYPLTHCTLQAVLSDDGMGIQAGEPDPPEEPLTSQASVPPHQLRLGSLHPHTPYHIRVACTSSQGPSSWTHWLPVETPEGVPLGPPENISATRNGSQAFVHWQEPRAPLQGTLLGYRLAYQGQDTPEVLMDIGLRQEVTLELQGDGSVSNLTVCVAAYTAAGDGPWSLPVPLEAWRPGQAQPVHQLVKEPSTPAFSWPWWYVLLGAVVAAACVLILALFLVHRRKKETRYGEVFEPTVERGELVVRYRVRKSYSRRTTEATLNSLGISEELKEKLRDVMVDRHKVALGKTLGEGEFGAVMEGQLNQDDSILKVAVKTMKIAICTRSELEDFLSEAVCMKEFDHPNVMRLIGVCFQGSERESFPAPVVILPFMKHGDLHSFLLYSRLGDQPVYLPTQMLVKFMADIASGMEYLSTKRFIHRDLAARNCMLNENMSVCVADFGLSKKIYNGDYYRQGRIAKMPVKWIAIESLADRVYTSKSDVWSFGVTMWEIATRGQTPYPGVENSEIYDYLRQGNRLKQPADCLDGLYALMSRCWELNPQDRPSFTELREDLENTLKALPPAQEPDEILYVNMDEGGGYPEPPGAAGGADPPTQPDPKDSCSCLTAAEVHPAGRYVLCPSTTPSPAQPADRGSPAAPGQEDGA

[4] = biological target: RAF proto-oncogene serine/threonine-protein kinase (Homo sapiens, UniProt P04049)
RAF proto-oncogene serine/threonine-protein kinase, sequence (P04049 whole entry): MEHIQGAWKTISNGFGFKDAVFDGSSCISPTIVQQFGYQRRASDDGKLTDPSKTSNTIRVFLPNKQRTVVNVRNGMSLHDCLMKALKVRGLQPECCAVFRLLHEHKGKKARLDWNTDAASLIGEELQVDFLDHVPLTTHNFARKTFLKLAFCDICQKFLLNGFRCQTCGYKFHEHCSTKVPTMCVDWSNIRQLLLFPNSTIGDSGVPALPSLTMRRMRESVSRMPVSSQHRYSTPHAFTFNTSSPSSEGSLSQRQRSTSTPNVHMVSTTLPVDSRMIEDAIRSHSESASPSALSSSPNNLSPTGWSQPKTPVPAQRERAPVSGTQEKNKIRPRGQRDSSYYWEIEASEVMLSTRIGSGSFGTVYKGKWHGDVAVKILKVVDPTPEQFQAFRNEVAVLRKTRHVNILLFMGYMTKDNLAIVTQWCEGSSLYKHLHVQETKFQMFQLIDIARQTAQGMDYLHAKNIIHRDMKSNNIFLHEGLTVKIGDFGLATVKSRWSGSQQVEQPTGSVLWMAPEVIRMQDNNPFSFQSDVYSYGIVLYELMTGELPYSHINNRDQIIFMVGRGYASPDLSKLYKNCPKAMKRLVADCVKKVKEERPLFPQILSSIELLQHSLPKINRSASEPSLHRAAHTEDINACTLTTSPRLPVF

[5] = biological target: Vascular endothelial growth factor receptor 2 (Homo sapiens, UniProt P35968)
Vascular endothelial growth factor receptor 2, sequence (P35968 whole entry): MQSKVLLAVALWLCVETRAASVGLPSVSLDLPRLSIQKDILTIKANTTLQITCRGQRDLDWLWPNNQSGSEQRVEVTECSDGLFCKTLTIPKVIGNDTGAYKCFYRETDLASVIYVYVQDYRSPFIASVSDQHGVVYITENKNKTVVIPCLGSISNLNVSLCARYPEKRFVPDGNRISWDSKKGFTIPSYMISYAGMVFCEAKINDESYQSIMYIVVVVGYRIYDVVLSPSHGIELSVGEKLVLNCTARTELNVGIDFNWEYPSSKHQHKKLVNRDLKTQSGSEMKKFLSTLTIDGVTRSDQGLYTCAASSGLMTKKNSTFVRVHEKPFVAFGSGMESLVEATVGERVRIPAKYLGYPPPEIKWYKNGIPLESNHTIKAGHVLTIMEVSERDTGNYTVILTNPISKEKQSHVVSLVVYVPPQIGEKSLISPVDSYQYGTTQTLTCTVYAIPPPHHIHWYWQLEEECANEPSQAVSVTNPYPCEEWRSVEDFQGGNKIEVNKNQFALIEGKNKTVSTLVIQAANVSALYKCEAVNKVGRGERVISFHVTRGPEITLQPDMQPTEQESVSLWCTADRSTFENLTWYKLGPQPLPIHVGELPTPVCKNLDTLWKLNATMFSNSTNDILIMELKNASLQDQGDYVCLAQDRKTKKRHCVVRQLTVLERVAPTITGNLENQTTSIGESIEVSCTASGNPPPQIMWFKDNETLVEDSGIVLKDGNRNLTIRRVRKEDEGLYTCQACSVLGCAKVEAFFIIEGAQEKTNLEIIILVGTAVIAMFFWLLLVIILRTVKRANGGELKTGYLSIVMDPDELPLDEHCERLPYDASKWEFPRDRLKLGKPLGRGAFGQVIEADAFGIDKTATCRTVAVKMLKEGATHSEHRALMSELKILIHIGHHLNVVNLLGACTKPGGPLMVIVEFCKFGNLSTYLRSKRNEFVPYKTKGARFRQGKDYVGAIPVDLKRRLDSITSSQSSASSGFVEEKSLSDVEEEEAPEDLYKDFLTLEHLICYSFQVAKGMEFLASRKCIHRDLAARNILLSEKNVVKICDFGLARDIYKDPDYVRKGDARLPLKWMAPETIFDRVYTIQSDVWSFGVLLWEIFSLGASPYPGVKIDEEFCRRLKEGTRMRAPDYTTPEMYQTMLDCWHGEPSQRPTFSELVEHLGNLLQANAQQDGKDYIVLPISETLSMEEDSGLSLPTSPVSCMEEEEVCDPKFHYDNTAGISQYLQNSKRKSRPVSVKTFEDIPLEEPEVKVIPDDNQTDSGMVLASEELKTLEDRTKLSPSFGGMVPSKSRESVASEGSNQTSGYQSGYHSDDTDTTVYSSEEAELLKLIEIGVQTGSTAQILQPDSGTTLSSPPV

[6] = biological target: T2, Bone morphogenetic protein receptor type-2 (Homo sapiens, UniProt Q13873)
T2 sequence (Q13873 whole entry): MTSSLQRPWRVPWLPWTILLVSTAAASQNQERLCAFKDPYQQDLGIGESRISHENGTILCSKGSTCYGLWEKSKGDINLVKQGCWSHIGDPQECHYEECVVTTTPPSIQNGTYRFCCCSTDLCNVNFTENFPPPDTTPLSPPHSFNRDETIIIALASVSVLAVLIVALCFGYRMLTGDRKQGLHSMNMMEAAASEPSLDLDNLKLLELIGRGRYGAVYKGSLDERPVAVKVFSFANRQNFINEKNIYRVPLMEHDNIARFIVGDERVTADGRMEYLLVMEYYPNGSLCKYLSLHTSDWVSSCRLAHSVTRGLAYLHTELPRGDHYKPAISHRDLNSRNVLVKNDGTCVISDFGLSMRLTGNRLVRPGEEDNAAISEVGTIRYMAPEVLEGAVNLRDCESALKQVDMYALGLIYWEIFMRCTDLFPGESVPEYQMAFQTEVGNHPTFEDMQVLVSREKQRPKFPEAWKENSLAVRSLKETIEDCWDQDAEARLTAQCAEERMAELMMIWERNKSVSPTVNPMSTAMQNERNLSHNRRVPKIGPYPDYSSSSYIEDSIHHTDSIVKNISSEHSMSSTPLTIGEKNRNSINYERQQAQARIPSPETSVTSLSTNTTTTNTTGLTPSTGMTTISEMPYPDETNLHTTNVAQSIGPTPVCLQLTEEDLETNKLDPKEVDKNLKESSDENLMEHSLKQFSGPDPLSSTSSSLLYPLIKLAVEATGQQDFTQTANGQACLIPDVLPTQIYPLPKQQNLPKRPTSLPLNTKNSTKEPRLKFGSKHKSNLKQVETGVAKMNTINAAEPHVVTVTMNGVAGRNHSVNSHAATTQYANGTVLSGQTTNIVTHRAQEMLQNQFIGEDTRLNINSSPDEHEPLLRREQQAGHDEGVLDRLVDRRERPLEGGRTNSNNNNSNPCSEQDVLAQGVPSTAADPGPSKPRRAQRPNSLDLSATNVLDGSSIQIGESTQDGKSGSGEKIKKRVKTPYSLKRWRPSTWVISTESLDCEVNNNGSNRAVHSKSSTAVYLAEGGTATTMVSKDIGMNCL

Ephrin type-A receptor 4 = Ephrin type-A receptor 4 (Homo sapiens, UniProt P54764)
Ephrin type-A receptor 4, sequence (P54764 whole entry): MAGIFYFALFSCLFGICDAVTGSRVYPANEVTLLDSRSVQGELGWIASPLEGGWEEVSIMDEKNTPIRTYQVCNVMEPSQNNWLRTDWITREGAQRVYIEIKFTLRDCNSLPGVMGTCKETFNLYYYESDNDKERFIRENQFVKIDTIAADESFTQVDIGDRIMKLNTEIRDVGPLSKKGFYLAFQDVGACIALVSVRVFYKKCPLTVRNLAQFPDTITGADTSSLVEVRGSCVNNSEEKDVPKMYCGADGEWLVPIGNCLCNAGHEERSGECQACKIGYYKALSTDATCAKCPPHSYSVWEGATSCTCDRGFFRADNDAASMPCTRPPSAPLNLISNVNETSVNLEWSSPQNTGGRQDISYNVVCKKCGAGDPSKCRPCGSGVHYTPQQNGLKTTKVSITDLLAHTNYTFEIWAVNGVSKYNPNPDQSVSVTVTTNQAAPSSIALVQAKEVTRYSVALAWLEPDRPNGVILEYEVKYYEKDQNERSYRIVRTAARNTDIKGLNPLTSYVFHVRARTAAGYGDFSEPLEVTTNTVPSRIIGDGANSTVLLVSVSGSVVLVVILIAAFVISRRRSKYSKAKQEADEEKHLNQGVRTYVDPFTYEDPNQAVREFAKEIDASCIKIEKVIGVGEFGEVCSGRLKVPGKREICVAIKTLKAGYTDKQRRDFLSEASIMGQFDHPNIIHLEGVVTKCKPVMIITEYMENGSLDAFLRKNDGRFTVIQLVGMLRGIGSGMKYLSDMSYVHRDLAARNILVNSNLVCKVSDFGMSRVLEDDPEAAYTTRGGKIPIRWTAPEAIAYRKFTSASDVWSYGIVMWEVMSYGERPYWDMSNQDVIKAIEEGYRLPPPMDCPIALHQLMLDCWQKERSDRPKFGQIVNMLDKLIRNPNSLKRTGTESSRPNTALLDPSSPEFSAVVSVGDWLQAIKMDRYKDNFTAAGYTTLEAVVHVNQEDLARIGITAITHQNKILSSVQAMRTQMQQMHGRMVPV

[7] = biological target: Receptor-type tyrosine-protein kinase FLT3 (Homo sapiens, UniProt P36888, D835Y)

Proto-oncogene tyrosine-protein kinase receptor Ret, sequence (P07949 whole entry): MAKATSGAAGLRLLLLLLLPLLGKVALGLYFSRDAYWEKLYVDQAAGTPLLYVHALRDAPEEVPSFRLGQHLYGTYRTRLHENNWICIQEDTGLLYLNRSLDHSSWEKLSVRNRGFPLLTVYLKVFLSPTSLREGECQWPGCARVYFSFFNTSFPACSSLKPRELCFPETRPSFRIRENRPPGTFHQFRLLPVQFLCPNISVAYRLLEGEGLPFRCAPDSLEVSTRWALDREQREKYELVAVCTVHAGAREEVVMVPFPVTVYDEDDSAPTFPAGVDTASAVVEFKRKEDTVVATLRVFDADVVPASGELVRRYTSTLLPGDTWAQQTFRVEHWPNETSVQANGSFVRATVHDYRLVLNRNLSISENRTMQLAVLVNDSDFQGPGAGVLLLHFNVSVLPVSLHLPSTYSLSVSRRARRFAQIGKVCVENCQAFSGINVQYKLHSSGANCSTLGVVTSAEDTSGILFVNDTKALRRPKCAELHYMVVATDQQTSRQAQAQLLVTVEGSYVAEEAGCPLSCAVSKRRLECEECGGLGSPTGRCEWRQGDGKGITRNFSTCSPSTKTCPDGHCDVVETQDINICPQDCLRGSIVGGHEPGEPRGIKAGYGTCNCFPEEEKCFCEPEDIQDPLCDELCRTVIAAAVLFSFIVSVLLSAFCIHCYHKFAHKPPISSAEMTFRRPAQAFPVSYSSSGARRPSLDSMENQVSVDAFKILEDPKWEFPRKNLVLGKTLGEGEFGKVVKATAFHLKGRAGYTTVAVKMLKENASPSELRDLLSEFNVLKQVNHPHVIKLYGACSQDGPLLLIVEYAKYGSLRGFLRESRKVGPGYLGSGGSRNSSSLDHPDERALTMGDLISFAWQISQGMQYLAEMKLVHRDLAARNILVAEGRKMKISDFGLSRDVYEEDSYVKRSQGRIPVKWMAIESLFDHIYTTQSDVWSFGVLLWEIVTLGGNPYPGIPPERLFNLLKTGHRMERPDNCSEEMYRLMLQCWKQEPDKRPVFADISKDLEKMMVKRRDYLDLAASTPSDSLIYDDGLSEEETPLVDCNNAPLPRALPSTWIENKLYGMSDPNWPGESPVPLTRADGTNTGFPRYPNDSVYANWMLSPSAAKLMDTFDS
Mitogen-activated protein kinase 9, sequence (P45984 whole entry): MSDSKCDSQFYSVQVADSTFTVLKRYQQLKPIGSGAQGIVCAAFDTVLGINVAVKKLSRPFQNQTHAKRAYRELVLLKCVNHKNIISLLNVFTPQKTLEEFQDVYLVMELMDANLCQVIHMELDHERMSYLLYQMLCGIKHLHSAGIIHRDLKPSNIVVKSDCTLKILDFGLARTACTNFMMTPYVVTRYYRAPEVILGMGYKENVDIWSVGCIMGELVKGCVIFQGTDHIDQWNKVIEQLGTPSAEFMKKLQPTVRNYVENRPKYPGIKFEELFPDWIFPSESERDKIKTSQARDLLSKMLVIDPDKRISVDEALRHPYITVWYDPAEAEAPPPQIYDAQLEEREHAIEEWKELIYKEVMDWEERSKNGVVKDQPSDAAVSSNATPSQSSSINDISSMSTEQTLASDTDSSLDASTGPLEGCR

## COCC(=O)NC/C=C/c1ccc2ncnc(Nc3ccc(Oc4ccc(C)nc4)c(C)c3)c2c1 [CP-724714]
[1]
  Kd: > 10 µM
[2]
  Kd: > 10 µM
[3]
  Kd: > 10 µM
[4]
  Kd: > 10 µM
[5]
  Kd: > 10 µM
[6]
  Kd: > 10 µM
Ephrin type-A receptor 4
  Kd: > 10 µM
[7]
  Kd: > 10 µM

## Nc1nc(Nc2ccc(S(N)(=O)=O)cc2)nn1C(=O)c1c(F)cccc1F [JNJ-7706621]
[4]
  Kd: > 10 µM
Ephrin type-A receptor 4
  Kd: > 10 µM

## CCOc1cc2ncc(C#N)c(Nc3ccc(F)c(Cl)c3)c2cc1NC(=O)/C=C/CN(C)C [PELITINIB]
[1]
  Kd: > 10 µM
[2]
  Kd: > 10 µM
[3]
  Kd: 0.92 µM
[4]
  Kd: > 10 µM
[5]
  Kd: > 10 µM
[6]
  Kd: > 10 µM
Ephrin type-A receptor 4
  Kd: > 10 µM
[7]
  Kd: 2.8 µM

## Oc1ccc(-c2nc(-c3ccncc3)c(-c3ccc(F)cc3)[nH]2)cc1 [SB-202190]
[2]
  Kd: > 10 µM
[3]
  Kd: > 10 µM
[5]
  Kd: > 10 µM
[6]
  Kd: > 10 µM
Ephrin type-A receptor 4
  Kd: > 10 µM
[7]
  Kd: > 10 µM

## NC(=O)c1ccc(-c2nc(-c3ccc4c(c3)OCO4)c(-c3ccccn3)[nH]2)cc1 [SB-431542]
[1]
  Kd: > 10 µM
[2]
  Kd: > 10 µM
[3]
  Kd: > 10 µM
[4]
  Kd: > 10 µM
[5]
  Kd: > 10 µM
[6]
  Kd: > 10 µM
Ephrin type-A receptor 4
  Kd: > 10 µM
